Source: patent publication US9447119B2, “Chemical compound for inhibiting the growth and proliferation of human liver cancer cells HepG2 and method for synthesizing it” (priority 2015, dated 2016)
In brackets after ≈: the same amount, converted by molar mass.

Assays:
[1] = tested on: HepG2 (Hepatocellular carcinoma cells); assay: Cytotoxicity evaluation using viability assay (crystal violet) against HepG2 cell line; assay type: cell-based, human; conditions: for Viability %: 48 hours; for IC50: Homo sapiens, HepG2 cells, 48 hours incubation, crystal violet viability, read-out: inhibition concentration value (IC50) against HepG2
Text: HepG2 cells (human cell line of a well differentiated hepatocellular carcinoma isolated from a liver biopsy of a person) were obtained from the American Type Culture Collection (ATCC). The chemicals used were: Dimethyl sulfoxide (DMSO), crystal violet and trypan blue dye, purchased from Sigma, St. Louis, Mo., USA; DMEM, RPMI-1640, FBS, HEPES buffer solution, L-glutamine, gentamycin and 0.25% Trypsin-EDTA, purchased from BioWhittaker®, Lonza, Belgium; and Crystal violet stain (1%), composed of 0.5% (w/v) crystal violet and 50% methanol, made up to volume with ddH20 and filtered through a Whatmann No. I filter paper.
In the cytotoxicity assay, the cells were propagated in Dulbecco's modified Eagle's medium (DMEM) supplemented with 10% heat-inactivated fetal bovine serum, 1% L-glutamine, HEPES buffer and 50 μg/ml gentamycin. All cells were maintained at 37° C. in a humidified atmosphere with 5% C02 and were subcultured two times a week.
Cell toxicity was monitored by determining the effect of the test samples on cell morphology and cell viability.
For cytotoxicity assay, the cells were seeded in a 96-well plate at a cell concentration of 1×10^4 cells per well in 100 μl of growth medium. Fresh medium containing different concentrations of the test sample was added after 24 hours following seeding. Serial two-fold dilutions of the tested chemical compound were added to confluent cell monolayers dispensed into 96-well, flat-bottomed microtiter plates (Falcon, N.J., USA) using a multichannel pipette. The microtiter plates were incubated at 37° C. in a humidified incubator with 5% C02 for a period of 48 hours. Three wells were used for each concentration of the test sample. Control cells were incubated without test sample and with or without DMSO. The little percentage of DMSO present in the wells (maximal 0.1%) was found not to affect the experiment. After incubation of the cells for 24 hours at 37° C., various concentrations of sample (50, 25, 12.5, 6.25, 3.125 & 1.56 μg) were added, and the incubation was continued for 48 hours and viable cells yield was determined by a colorimetric method.
In brief, after the end of the incubation period, media were aspirated and the crystal violet solution (1%) was added to each well for at least 30 minutes. The stain was removed and the plates were rinsed using tap water until all excess stain was removed. Glacial acetic acid (30%) was then added to all wells and mixed thoroughly and then the absorbance of the plates was measured after being gently shaken on a Microplate reader (TECAN, Inc.), using a test wavelength of 490 nm. All results were corrected for background absorbance detected in wells without added stain. Treated samples were compared with the cell control in the absence of the tested compounds. All experiments were carried out in triplicate.
The cell cytotoxic effect of each tested compound was calculated according to the rapid colorimetric assay for cellular growth and survival: application to proliferation and cytotoxicity assay, published by T. Mosmann in the Journal of Immunology Methods, 1983, 65:55-63; and the antiviral activity of medicinal plants of Nilgriris, published by P. Vijayan et al. in the Indian Journal of Medical Research, 2004, 120: 24-29.

[2] = tested on: HepG2 (Hepatocellular carcinoma cells); assay: as above; assay type: cell-based, human; conditions: 48 hours

melting point [°C] | Structure (SMILES) | Viability % ([1]; HepG2, sample conc. 1.56 μg) [%] | Viability % ([1]; HepG2, sample conc. 3.125 μg) [%] | Viability % ([1]; HepG2, sample conc. 6.25 μg) [%] | Viability % ([1]; HepG2, sample conc. 12.5 μg) [%] | Viability % ([1]; HepG2, sample conc. 25 μg) [%] | Viability % ([1]; HepG2, sample conc. 50 μg) [%] | IC50 [1] [µg/mL] | Viability % ([2]; HepG2, sample conc. 0.78 μg) [%] | Viability % ([2]; HepG2, sample conc. 0.39 μg) [%]
– | COc1cccc2c1C(=O)c1c(O)c3c(c(O)c1C2=O)C[C@@](O)(C(=O)CO)C[C@@H]3O[C@H]1C[C@H](N)[C@H](O)[C@H](C)O1 [Doxorubicin, reference compound] | 48.25 | 30.32 | 21.03 | 16.90 | 14.29 | 10.95 | 1.2 (≈ 2.21 µM) | 57.44 | –
> 300 | O=c1c2c3c(sc2nc2sc(Nc4ccc([N+](=O)[O-])cc4)nn12)CCCCC3 [compound of the invention, 2-((4-Nitrophenyl)amino)-7,8,9,10-tetrahydrocyclohepta[4,5]thieno[2,3-d][1,3,4]thiadiazolo[3,2-a]pyrimidin-11(6H)-one] | 32.86 | 23.17 | 13.92 | 10.04 | 7.52 | 3.79 | 0.7 (≈ 1.69 µM) | 45.74 | 64.21
